Data taken from patent US20010035503A1, “Method and apparatus for non-invasive detection of angiogenic and anti-angiogenic activity in living tissue” (priority 2000, published 2001).

Columns and labels:
[1] = system: C3H murine mammary carcinoma; assay: anti-vascular effects by combined LDF and NIRS measurements in mice with tumor transplants; type: in vivo; settings: for LDF: difference between post- and pre-treatment as percent of pre-treatment value; for LDF / NIRS* / pO2 after treatment % < 5 mm Hg: median, N = 3; for LDF / NIRS* / pO2 after treatment median / pO2 after treatment % < 5 mm Hg: i.p.: FAA 150, CA4B 250, DMX-AA 20, HDZ 5 mg/kg; for tumor blood perfusion estimated by LDF / hemoglobin concentration: in words; for hemoglobin concentration: from NIRS; for NIRS*: reflectance (1/absorbance), increase = decrease in hemoglobin concentration, post- minus pre-treatment as percent of pre-treatment; for pO2 after treatment median: tumor pO2, N = 3; for pO2 after treatment % < 5 mm Hg: tumor pO2 values below 5 mm Hg
Description: Anti-vascular effects on C3H murine mammary carcinoma were determined by combined LDF and NIRS measurements, in mice with tumor transplants using the apparatus shown in FIG. 9.
The three agents DMX-AA, FAA and CA4B are antivascular agents, which by various mechanisms cause collapse of tumor vasculature and consequently a decrease in tumor blood flow and oxygenation. Hydralazine (HDZ) is a well known anti-hypertensive agent that causes peripheral vasodilatation, i.e. a drop in vascular flow resistance leading to an acute decrease in tumor perfusion (a.k.a. the “steal effect”), because of the lack of autoregulation of tumor vessels. Numbers in the table represent differences between post-and pre-treatment measurements expressed as percent of the pre-treatment value. Number of experiments per drug=3.

[2] = system: bFGF induced angiogenic response; assay: anti-angiogenic activity in bFGF stimulated animals, LDF and NIRS recordings; type: in vivo, mouse
Description: (§1) The apparatus as shown on FIG. 9 was tested in a mouse model with a controlled angiogenic response induced by local application of an angiogenic agent, basic fibroblast growth factor (bFGF). Parallel experiments were performed with identical setup in order to correlate the sensitivity of near infrared spectroscopy (NIRS) compared to laser doppler flowmetry (LDF) for estimation of angiogenic and anti-angiogenic responses.
(§2) A slow release pellet (Innovative Res.) containing 100 micrograms of bFGF released at a constant rate over 10 days was implanted under the skin at three different locations in the mouse. The angiogenic response to the active substance was evaluated in comparison with placebo pellets. […] Median values and interquartile range is shown.
The ability to detect anti-angiogenic properties of therapeutic agents in these preparations was tested in the same technical settings by comparing treated versus untreated animals.
FIGS. 3A and 3B show the anti-angiogenic activity after treatment with TNP-470 (7 mg/kg q.d.x7, n=13). […] LDF recordings were performed on day 6, whereas NIRS recordings were performed on day 7 after implantation. Median values and interquartile range is shown.

U87 and MLL tumor lines = assay: tumor growth, NIRS recordings and Chalkley counts during continuous anti-angiogenic treatment; type: in vivo, nude mice
Text: The relationship between non-invasive measures of tumor hemoglobin concentration by NIRS and estimates of vessel density by Chalkley counts was examined in seven tumor lines (gliomas: U87, U118, U373; Small Cell Lung Cancer (SCLC): 54A, 54B, DMS79; rat prostate cancer: MLL) on the hind leg of nude mice. Chalkley counts were obtained from CD31 immunostained cryosections. The NIRS absorbance increased with the tumor size until a tumor line specific plateau was reached from tumor sizes of 100-150 mm^3.
We also evaluated the correlation between tumor size and NIRS recordings during untreated growth for all seven tumor lines, and during continuous anti-angiogenic treatment with TNP-470 for two tumor lines, U87 and MLL.

angiogenic response = angiogenic response to bFGF slow release pellet implanted under the skin, LDF and NIRS recordings; type: in vivo, mouse; settings: pellet with 100 micrograms bFGF vs placebo pellets, p<0.05 vs placebo, p<0.001 vs controls
Description: as §1, §2

[3] = treated vs untreated tumors of similar size, U87 and MLL

Cc1ccc2c(=O)c3cccc(CC(=O)O)c3oc2c1C [DMX-AA]
LDF [1]: −74% | tumor blood perfusion estimated by LDF [1]: decrease in perfusion | hemoglobin concentration [1]: unchanged hemoglobin concentration | NIRS* [1]: +1% | pO2 after treatment median [1]: 2.8 | pO2 after treatment % < 5 mm Hg [1]: 66%

O=C(O)Cc1cccc2c(=O)cc(-c3ccccc3)oc12 [FAA]
LDF [1]: −34% | tumor blood perfusion estimated by LDF [1]: decrease in perfusion | hemoglobin concentration [1]: unchanged hemoglobin concentration | NIRS* [1]: +6% | pO2 after treatment median [1]: 1.5 | pO2 after treatment % < 5 mm Hg [1]: 69%

NNc1nncc2ccccc12 [HDZ, Hydralazine]
LDF [1]: −93% | NIRS* [1]: +36% | pO2 after treatment median [1]: 1.9 | pO2 after treatment % < 5 mm Hg [1]: 85%

CO[C@@H]1[C@H](OC(=O)NC(=O)CCl)CC[C@]2(CO2)[C@H]1[C@@]1(C)O[C@@H]1CC=C(C)C [TNP-470]
LDF recordings ([2]; compared to untreated bFGF stimulated animals, day 6, TNP-470 7 mg/kg q.d.x7 (p<0.05), dexamethasone 10 mg/kg q.d.x7 (p<0.001)): significantly lower | NIRS recordings ([2]; compared to untreated bFGF stimulated animals, day 7, TNP-470 7 mg/kg q.d.x7 (p<0.05), dexamethasone 10 mg/kg q.d.x7 (p<0.001)): significantly lower | anti-angiogenic activity ([2]; treated versus untreated animals): Significant anti-angiogenic activity | onset of tumor growth and the growth rate (U87 and MLL tumor lines; continuous treatment, U87 and MLL tumors): significantly retarded | Chalkley counts (U87 and MLL tumor lines; [3]): significantly lower | final NIRS recordings (U87 and MLL tumor lines; [3]): significantly lower

basic fibroblast growth factor [bFGF]
LDF recordings (angiogenic response; day 6 after implantation): significantly higher than placebo | NIRS recordings (angiogenic response; day 7 after implantation): significantly higher than placebo
